How the values were obtained:
in vitro [1] = settings: human, HEK-293 cells
Protocol: (§3) Human embryonic kidney HEK-293 cells (ATCC No. CRL-1573) were cultivated in Dulbecco's modified Eagle's medium (DMEM) containing 10% fetal bovine serum (FBS). Human neuroblastoma SH-SY5Y cells (ATCC No. CRL-2266) were maintained in DMEM F12 supplemented with 10% FBS. Cells were cultivated at 37° C. incubator containing 5% CO2 and cell proliferation was measured based upon the reduction of the tetrazolium salt, 3,[4,5-dimethylthiazol-2-yl]-2,5-diphenyl-tetrazolium bromide (MTT). […] After one day, 20 μL MTT (5 mg/mL in PBS, Sigma) was added to cells and incubated for 2 hours. The absorbance of the purple formazan dye was measured at 570 nm by a Bio-Tek μtQuant Universal Microplate Spectrophotometer.

HSPA8 promoter = assay: Triple fluorescent reporter cells, HSPA8 promoter activity; format: cell-based, human; settings: 100 nM-100 μM, 24 hours
Text: (§1) Referring to three references (Zhang Y, Koushik S, Dai R, Mivechi N F, Journal of Biological Chemistry, vol. 273, no. 49, pp. 32514-32521, 1998; He M, Guo H, Yang X, Zhou L, Zhang X, Cheng L, Zeng H, Hu F B, Tanguay R M, Wu T, PLoS One, vol. 5, no. 3, e9684, 2010; and Wu Y R, Wang C K, Chen C M, Hsu Y, Lin S J, Lin Y Y, Fung H C, Chang K H, Lee-Chen G J, Human Genetics, vol. 114, no. 3, pp. 236-241, 2004), a triple fluorescent reporter plasmid was constructed in pAmCyan1-N1 with mCherry, ZsYellow1 and AmCyan1 fluorescent reporters driven by heat shock transcription factor1 (HSF1, −360˜+2, with the translation initiation A as +1), heat shock cognate protein (HSPA8, −1140˜+38, driving constitutively expressed HSP70) and heat-inducible HSP70 chaperone (HSPA1A, −273˜+215, driving heat-inducible HSP70) promoters, respectively. The fragment containing the HSF1, HSPA8 and HSPA1A driven reporters was removed with AseI and NotI restriction enzymes and used to replace an AseI-NotI fragment in pcDNA5/FRT/TO plasmid (Invitrogen). The resulting triple fluorescent reporter plasmid was used to generate triple fluorescent reporter cells by targeted insertion into Flp-In™-293 cells, according to the supplier's instructions (Invitrogen). The cells were selected by medium containing 5 μg/mL blasticidin S and 100 μg/mL hygromycin.
(§2) The three fluorescence colors were analyzed simultaneously using high-content analysis (HCA) system (ImageXpressMICRO, Molecular Devices), with excitation/emission wavelengths at […], 531/540 (ZsYellow1) and […].

HSF1 promoter = assay: Triple fluorescent reporter cells, HSF1 promoter activity; format: cell-based, human; settings: 100 nM-100 μM, 24 hours
Text: as §1, §2

in vitro [2] = settings: human, SH-SY5Y cells
Protocol: as §3

HSPA1A promoter = assay: Triple fluorescent reporter cells, HSPA1A promoter activity; format: cell-based, human; settings: 100 nM-100 μM, 24 hours
Text: as §1, §2

[3] = system: SCA17 mouse cerebellar slice culture; assay: SCA17 mouse cerebellar slice culture, Purkinje cell aggregation; format: cell-based
Protocol: Cerebellum was separated from p7 SCA17 mice and transferred to ice-cold medium containing 50% basal medium eagle (Invitrogen), 25% Hank's buffered salt solution (Invitrogen), 25% horse serum (Invitrogen), 0.5% D-glucose (Sigma), 1 mM GlutaMAX I (Invitrogen), 100 U/mL penicillin (Invitrogen) and 100 μg/mL streptomycin (Invitrogen). The cerebellum was separated from the other brain regions in ice-cold medium, and the hemisphere was then cut into 350 μm parasagittal sections with a vibratome (VT1200S, Leica). To improve the survival rate of cerebellar slices, we continuously bubbled the medium with 95% O2 and 5% CO2 during the sectioning. The slices were then cultured on 0.4 μm pore size culture plate inserts (Millipore) in six-well plates. All treatments were applied to the slices at day 2. After culture for 7 days, cells were immunostained with primary antibody [IP3R-1 (for Purkinje cells), 1:1000, Santa Cruz; 1TBP18 (for aggregation), 1:30000, QED Bioscience], fluorescence-conjugated secondary antibody (1:500, Invitrogen) and DAPI (1:10000, Sigma). The staining results were observed by confocal microscope (DMRE, TCS SP2, Leica).
To further confirm neuroprotective potential of the indole compounds, we applied indole and NC001-8 to the SCA17 mouse cerebellar primary and slice cultures, respectively. […]

293 ATXN3/Q75-GFP cells = assay: ATXN3/Q75 aggregation assay (high content analysis); format: cell-based, human; settings: at 100 nM; 6 days doxycycline and oxaliplatin
Protocol: Then, doxycycline (10 μg/mL, BD) was added to the medium in each well to induce ATXN3/Q75-GFP expression for 6 days. […] Then, cells were stained with Hoechst 33342 (0.1 μg/mL, Sigma) and aggregation percentage was assessed by high content analysis (HCA) system (ImageXpressMICRO, Molecular Devices), with excitation/emission wavelengths at 482/536 (EGFP).

LC3 = assay: LC3-II/LC3-I ratio (autophagy) in 293 ATXN3/Q75 cells, Western blot; format: cell-based, human; settings: 293 ATXN3/Q75 cells +Dox 6 days, 200 nM; +Dox alone 59%
Protocol: Total proteins were prepared using lysis buffer containing 50 mM Tris-HCl, 150 mM NaCl, 1 mM EDTA, 1 mM EGTA, 0.1% SDS and 0.5% sodium deoxycholate, 1% Triton X-100, and protease inhibitor cocktail (Calbiochem). Proteins (25 μg) were separated on 10% SDS-polyacrylamide gel electrophoresis and blotted on to nitrocellulose membranes by reverse electrophoresis. After blocking, the membrane was probed with antibody to HSF1 (1:1000 dilution, Abnova), HSPA8 (1:500 dilution, Santa Cruz), HSPA1A (1:500 dilution, Santa Cruz), GFP (1:500 dilution, Santa Cruz), LC3 (1:3000 dilution, MBL International), TBP (N-12) (1:500 dilution, Santa Cruz), β-actin (1:5000 dilution, Millipore) or GAPDH (1:1000 dilution, MDBio) at 4° C. overnight. Then the immune complexes were detected by horseradish peroxidase-conjugated goat anti-mouse (Jackson ImmunoResearch) or goat anti-rabbit (Rochland) IgG antibody (1:5000 dilution, GeneTex) and chemiluminescent substrate (Millipore).

SH-SY5Y cells = assay: MTT cytotoxicity against SH-SY5Y cells; settings: read-out: IC50 (cytotoxicity) against SH-SY5Y cells; MTT assay, 24 hours
Protocol: as §3

Compound	IC50 at 24 h (in vitro [1])	HSPA8 promoter activity (HSPA8 promoter)	HSF1 promoter activity (HSF1 promoter)	IC50 at 24 h (in vitro [2])	HSPA1A promoter activity (HSPA1A promoter)	reduction of Purkinje cell aggregation ([3]; 10 μM)	ATXN3/Q75 aggregation as compared to untreated cells (100%) (293 ATXN3/Q75-GFP cells)	reduction of Purkinje cell aggregation ([3]; 10 nM)	LC3-II/LC3-I ratio (LC3)	IC50 (SH-SY5Y cells)
O=C1CCc2[nH]c3ccccc3c21 [NC001-8, 3,4-dihydrocyclopenta[b]indol-1(2H)-one]	> 1000 µM	same trend of enhancement	same trend of enhancement	390 µM	same trend of enhancement	16%				
O=C(CCCCCCC(=O)Nc1ccccc1)NO [SAHA, suberoylanilide hydroxamic acid]							85%			
c1ccc2[nH]ccc2c1 [indole]	> 1000 µM	same trend of enhancement	same trend of enhancement	680 µM	same trend of enhancement			28%		
CO[C@H]1C[C@@H]2CC[C@@H](C)[C@@](O)(O2)C(=O)C(=O)N2CCCC[C@H]2C(=O)O[C@H]([C@H](C)C[C@@H]2CC[C@@H](O)[C@H](OC)C2)CC(=O)[C@H](C)/C=C(\C)[C@@H](O)[C@@H](OC)C(=O)[C@H](C)C[C@H](C)/C=C/C=C/C=C/1C [rapamycin]									98%	
geranylgeranylacetone [GGA, reference compound]		enhanced	enhanced		enhanced		85%			1000 µM

Source: patent US9393229B2, “Method for treating abnormal polyglutamine-mediated disease” (NATIONAL TAIWAN NORMAL UNIVERSITY, priority 2013, dated 2016)
